Experimental data published in US12617779B2, “Self degradation-type CDK9 inhibitor prodrug and liposome encapsulating same” (Sumitomo Pharma Co., Ltd., priority 2021, dated 2026).

Assays:
[1] = Pharmacokinetic test, intravenous solution and liposome formulations in mice (Experimental Example 6); format: in vivo; details: female BALB/c mice
Method: This was used as a solution formulation.
This was used as a liposome formulation.
Hydrogenated soybean phosphatidylcholine (COATSOME NC-21E, manufactured by NOF CORPORATION, 3.238 g), cholesterol (manufactured by Sigma, 1.160 g) and 1,2-disteroyl-rac-glycero-3-methylpolyoxyethylen 2000 (SUNBRIGHT GS-020, manufactured by NOF CORPORATION, 0.983 g) were dissolved in tert-butyl alcohol (300 mL) warmed to 65° C. The solution was placed in an eggplant flask and frozen in a dry ice-acetone bath, and then the tert-butyl alcohol was removed by evaporation under reduced pressure to give a lipid mixture.
To the above lipid mixture was added to a 250 mM ammonium sulfate solution (100 mL), and the mixture was warmed to 65° C., and dispersed by a homogenizer (ULTRA-TURRAX, manufactured by IKA) to give a crude liposome dispersion. […] The solution was filtered through a 0.22 μm membrane filter to adjust the total lipid concentration to 75 mM (75 μmol/mL). […] The solution was adjusted to pH 5 to 6 with 1 mol/L aqueous sodium hydroxide solution, warmed in a 65° C. water bath for 3 minutes, and ice-cooled. The liposome outer solution was replaced with 10 mM tartrate buffer solution/10% sucrose solution (pH 4) using a dialysis cassette (Slide-A-Lyzer G2 Dialysis Cassettes 20K MWCO, manufactured by Thermo Scientific), followed by filtration through a 0.22 μm membrane filter to adjust the concentration.
The solution formulation or liposome formulation was instantly administered intravenously to 7-week-old female BALB/c mice, and the blood was collected over time from the jugular vein without anesthesia up to 24 hours after administration for the solution formulation administration group and up to 72 hours after administration for the liposome formulation administration group. […] The plasma sample was centrifuged, and the concentrations of the test compound and Alvocidib in the obtained supernatant were determined by LC-MS/MS.

[2] = Evaluation of conversion rate to active form in buffer solution (Experimental Example 1); format: physicochemical; details: for Efficiency of conversion to Alvocidib: buffer solution; for Efficiency of conversion to Alvocidib / Production rate of Alvocidib / Residual rate: 37° C.; for Production rate of Alvocidib / Residual rate: 25 umol/L in buffer solution; for Stability in buffer solution at pH 5: pH 5, 37° C., up to 2 or 3 hours; for Conversion to Alvocidib at pH 7.4: pH 7.4, 37° C., up to 3 hours
Procedure, shortened: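 Conversion to Alvocidib was followed by HPLC over 3 hours at 37° C, with test compounds at 25 umol/L in 50 mM citrate or phosphate buffers spanning pH 5.0–7.4.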

CCN(C[C@@H]1CCCCN1)C(=O)Oc1cc(O)c2c(=O)cc(-c3ccccc3Cl)oc2c1[C@H]1CCN(C)C[C@H]1O [Example 1, 2-(2-chlorophenyl)-5-hydroxy-8-[(3S,4R)-3-hydroxy-1-methylpiperidin-4-yl]-4-oxo-4H-1-benzopyran-7-yl ethyl{[(2S)-piperidin-2-yl]methyl}carbamate ditrifluoroacetate]
Blood retention of liposome formulation compared with the corresponding solution formulation [1]: higher blood retention
Efficiency of conversion to Alvocidib [2]: higher efficiency
Production rate of Alvocidib ([2]; pH5.0, 0 hr): 0.0%
Residual rate ([2]; pH5.0, 0 hr): 98.7%
Stability in buffer solution at pH 5 [2]: stable
Production rate of Alvocidib ([2]; pH5.0, 0.5 hr): 0.4%
Residual rate ([2]; pH5.0, 0.5 hr): 98.4%
Production rate of Alvocidib ([2]; pH5.0, 1 hr): 0.7%
Residual rate ([2]; pH5.0, 1 hr): 98.1%
Production rate of Alvocidib ([2]; pH5.0, 2 hr): 1.3%
Residual rate ([2]; pH5.0, 2 hr): 97.4%
Production rate of Alvocidib ([2]; pH5.0, 3 hr): 1.8%
Residual rate ([2]; pH5.0, 3 hr): 96.9%
Production rate of Alvocidib ([2]; pH5.5, 0 hr): 0.0%
Residual rate ([2]; pH5.5, 0 hr): 98.8%
Production rate of Alvocidib ([2]; pH5.5, 0.5 hr): 1.0%
Residual rate ([2]; pH5.5, 0.5 hr): 97.3%
Production rate of Alvocidib ([2]; pH5.5, 1 hr): 1.8%
Residual rate ([2]; pH5.5, 1 hr): 97.1%
Production rate of Alvocidib ([2]; pH5.5, 2 hr): 3.5%
Residual rate ([2]; pH5.5, 2 hr): 95.3%
Production rate of Alvocidib ([2]; pH5.5, 3 hr): 5.1%
Residual rate ([2]; pH5.5, 3 hr): 93.8%
Production rate of Alvocidib ([2]; pH6.0, 0 hr): 0.0%
Residual rate ([2]; pH6.0, 0 hr): 99.2%
Production rate of Alvocidib ([2]; pH6.0, 0.5 hr): 3.3%
Residual rate ([2]; pH6.0, 0.5 hr): 95.5%
Production rate of Alvocidib ([2]; pH6.0, 1 hr): 6.3%
Residual rate ([2]; pH6.0, 1 hr): 92.5%
Production rate of Alvocidib ([2]; pH6.0, 2 hr): 12.0%
Residual rate ([2]; pH6.0, 2 hr): 86.8%
Production rate of Alvocidib ([2]; pH6.0, 3 hr): 17.0%
Residual rate ([2]; pH6.0, 3 hr): 81.8%
Production rate of Alvocidib ([2]; pH6.5, 0 hr): 0.0%
Residual rate ([2]; pH6.5, 0 hr): 98.4%
Production rate of Alvocidib ([2]; pH6.5, 0.5 hr): 8.7%
Residual rate ([2]; pH6.5, 0.5 hr): 90.2%
Production rate of Alvocidib ([2]; pH6.5, 1 hr): 16.4%
Residual rate ([2]; pH6.5, 1 hr): 82.0%
Production rate of Alvocidib ([2]; pH6.5, 2 hr): 30.1%
Residual rate ([2]; pH6.5, 2 hr): 68.4%
Production rate of Alvocidib ([2]; pH6.5, 3 hr): 40.7%
Residual rate ([2]; pH6.5, 3 hr): 57.7%
Production rate of Alvocidib ([2]; pH7.0, 0 hr): 0.0%
Residual rate ([2]; pH7.0, 0 hr): 98.9%
Production rate of Alvocidib ([2]; pH7.0, 0.5 hr): 23.2%
Residual rate ([2]; pH7.0, 0.5 hr): 75.0%
Production rate of Alvocidib ([2]; pH7.0, 1 hr): 41.1%
Residual rate ([2]; pH7.0, 1 hr): 57.8%
Production rate of Alvocidib ([2]; pH7.0, 2 hr): 65.3%
Residual rate ([2]; pH7.0, 2 hr): 33.5%
Production rate of Alvocidib ([2]; pH7.0, 3 hr): 77.1%
Residual rate ([2]; pH7.0, 3 hr): 21.0%
Production rate of Alvocidib ([2]; pH7.4, 0 hr): 0.4%
Residual rate ([2]; pH7.4, 0 hr): 98.5%
Conversion to Alvocidib at pH 7.4 [2]: rapidly converted to Alvocidib
Production rate of Alvocidib ([2]; pH7.4, 0.5 hr): 44.9%
Residual rate ([2]; pH7.4, 0.5 hr): 53.8%
Production rate of Alvocidib ([2]; pH7.4, 1 hr): 69.3%
Residual rate ([2]; pH7.4, 1 hr): 29.3%
Production rate of Alvocidib ([2]; pH7.4, 2 hr): 87.6%
Residual rate ([2]; pH7.4, 2 hr): 11.3%
Production rate of Alvocidib ([2]; pH7.4, 3 hr): 91.4%
Residual rate ([2]; pH7.4, 3 hr): 6.9%

CCCN(C[C@@H]1CCCCN1)C(=O)Oc1cc(O)c2c(=O)cc(-c3ccccc3Cl)oc2c1[C@H]1CCN(C)C[C@H]1O [Example 5, 2-(2-chlorophenyl)-5-hydroxy-8-[(3S,4R)-3-hydroxy-1-methylpiperidin-4-yl]-4-oxo-4H-1-benzopyran-7-yl {[(2S)-piperidin-2-yl]methyl}propylcarbamate]
Blood retention of liposome formulation compared with the corresponding solution formulation [1]: higher blood retention
Efficiency of conversion to Alvocidib [2]: higher efficiency
Production rate of Alvocidib ([2]; pH5.0, 0 hr): 0.0%
Residual rate ([2]; pH5.0, 0 hr): 98.7%
Stability in buffer solution at pH 5 [2]: stable
Production rate of Alvocidib ([2]; pH5.0, 0.5 hr): 0.6%
Residual rate ([2]; pH5.0, 0.5 hr): 98.3%
Production rate of Alvocidib ([2]; pH5.0, 1 hr): 1.1%
Residual rate ([2]; pH5.0, 1 hr): 97.8%
Production rate of Alvocidib ([2]; pH5.0, 2 hr): 2.3%
Residual rate ([2]; pH5.0, 2 hr): 96.7%
Production rate of Alvocidib ([2]; pH5.0, 3 hr): 3.4%
Residual rate ([2]; pH5.0, 3 hr): 95.8%
Production rate of Alvocidib ([2]; pH5.5, 0 hr): 0.0%
Residual rate ([2]; pH5.5, 0 hr): 98.3%
Production rate of Alvocidib ([2]; pH5.5, 0.5 hr): 1.2%
Residual rate ([2]; pH5.5, 0.5 hr): 97.2%
Production rate of Alvocidib ([2]; pH5.5, 1 hr): 2.1%
Residual rate ([2]; pH5.5, 1 hr): 96.4%
Production rate of Alvocidib ([2]; pH5.5, 2 hr): 3.9%
Residual rate ([2]; pH5.5, 2 hr): 94.5%
Production rate of Alvocidib ([2]; pH5.5, 3 hr): 5.7%
Residual rate ([2]; pH5.5, 3 hr): 92.7%
Production rate of Alvocidib ([2]; pH6.0, 0 hr): 0.0%
Residual rate ([2]; pH6.0, 0 hr): 98.7%
Production rate of Alvocidib ([2]; pH6.0, 0.5 hr): 3.6%
Residual rate ([2]; pH6.0, 0.5 hr): 95.2%
Production rate of Alvocidib ([2]; pH6.0, 1 hr): 6.6%
Residual rate ([2]; pH6.0, 1 hr): 92.2%
Production rate of Alvocidib ([2]; pH6.0, 2 hr): 12.8%
Residual rate ([2]; pH6.0, 2 hr): 85.7%
Production rate of Alvocidib ([2]; pH6.0, 3 hr): 18.6%
Residual rate ([2]; pH6.0, 3 hr): 79.8%
Production rate of Alvocidib ([2]; pH6.5, 0 hr): 0.0%
Residual rate ([2]; pH6.5, 0 hr): 98.4%
Production rate of Alvocidib ([2]; pH6.5, 0.5 hr): 9.5%
Residual rate ([2]; pH6.5, 0.5 hr): 88.9%
Production rate of Alvocidib ([2]; pH6.5, 1 hr): 17.1%
Residual rate ([2]; pH6.5, 1 hr): 80.9%
Production rate of Alvocidib ([2]; pH6.5, 2 hr): 32.1%
Residual rate ([2]; pH6.5, 2 hr): 65.5%
Production rate of Alvocidib ([2]; pH6.5, 3 hr): 44.2%
Residual rate ([2]; pH6.5, 3 hr): 52.6%
Production rate of Alvocidib ([2]; pH7.0, 0 hr): 0.0%
Residual rate ([2]; pH7.0, 0 hr): 98.4%
Production rate of Alvocidib ([2]; pH7.0, 0.5 hr): 25.0%
Residual rate ([2]; pH7.0, 0.5 hr): 72.7%
Production rate of Alvocidib ([2]; pH7.0, 1 hr): 41.9%
Residual rate ([2]; pH7.0, 1 hr): 55.0%
Production rate of Alvocidib ([2]; pH7.0, 2 hr): 66.7%
Residual rate ([2]; pH7.0, 2 hr): 28.7%
Production rate of Alvocidib ([2]; pH7.0, 3 hr): 79.9%
Residual rate ([2]; pH7.0, 3 hr): 15.0%
Production rate of Alvocidib ([2]; pH7.4, 0 hr): 0.0%
Residual rate ([2]; pH7.4, 0 hr): 98.7%
Conversion to Alvocidib at pH 7.4 [2]: rapidly converted to Alvocidib
Production rate of Alvocidib ([2]; pH7.4, 0.5 hr): 47.5%
Residual rate ([2]; pH7.4, 0.5 hr): 49.4%
Production rate of Alvocidib ([2]; pH7.4, 1 hr): 69.8%
Residual rate ([2]; pH7.4, 1 hr): 25.9%
Production rate of Alvocidib ([2]; pH7.4, 2 hr): 88.9%
Residual rate ([2]; pH7.4, 2 hr): 5.9%
Production rate of Alvocidib ([2]; pH7.4, 3 hr): 93.2%
Residual rate ([2]; pH7.4, 3 hr): 1.5%
